Here are results for six compounds from PubChem BioAssay AID1745844 (Carcinogenic Potency Database (CPDB), 2022).

The test system of this data set is rodent lifetime carcinogenesis bioassay, tumor incidence TD50. The data set can be described thus: chronic cancer bioassays in animals – CPDB, compiled studies (AID 1745844).

SMILES strings stand for the structures. The source made the active and inactive calls. The rule behind the calls is not given here.

One may read the TD50 as the dose at which the toxic effect under study appears in half of the subjects.

Regarding `FC(F)OC(F)(F)C(F)Cl` (stereo not given), the carcinogen call is “negative (inactive)” (mouse, strain Swiss/ICR, females, inhaled, site: liver, lesion: one or several types, types not named, dosed 52 weeks, study length 52 weeks); “negative (inactive)” (mouse, strain Swiss/ICR, females, inhaled, site: liver, lesion: several types, types named in the paper, dosed 78 weeks, study length 82 weeks); “negative (inactive)” (mouse, strain Swiss/ICR, males, inhaled, site: lung, lesion: adenoma, dosed 52 weeks, study length 52 weeks). Further, the TD50 (mouse, strain Swiss/ICR, females, inhaled, site: lung, lesion: adenoma, dosed 52 weeks, study length 52 weeks) is 8930 mg/kg/day (inactive); the TD50 (mouse, strain Swiss/ICR, females, inhaled, site: lung, lesion: adenoma, dosed 78 weeks, study length 82 weeks) is 18900 mg/kg/day (inactive); the TD50 (mouse, strain Swiss/ICR, males, inhaled, site: liver, lesion: several types, types named in the paper, dosed 52 weeks, study length 52 weeks) was 8120 mg/kg/day (inactive); the TD50 (mouse, strain Swiss/ICR, males, inhaled, site: liver, lesion: several types, types named in the paper, dosed 78 weeks, study length 82 weeks) was 11700 mg/kg/day (inactive); the TD50 (mouse, strain Swiss/ICR, males, inhaled, site: lung, lesion: adenoma, dosed 78 weeks, study length 82 weeks) is 60900 mg/kg/day (inactive).
As to `CN(CCCC(=O)c1cccnc1)N=O`, the TD50 reads like this: (hamster, strain Syrian Golden, females, in drinking water, site: liver, lesion: hepatocellular carcinoma, dosed 87 weeks, study length 87 weeks) 5.13 mg/kg/day (inactive); (rat, strain Fischer 344, males, in drinking water, site: all sites, lesion: several types, types named in the paper, dosed 118 weeks, study length 128 weeks) 0.14 mg/kg/day; (rat, strain Fischer 344, males, in drinking water, site: liver, lesion: adenoma, dosed 118 weeks, study length 128 weeks) 0.871 mg/kg/day; (rat, strain Fischer 344, males, in drinking water, site: liver, lesion: hepatoma, dosed 118 weeks, study length 128 weeks) 2.74 mg/kg/day; (rat, strain Fischer 344, males, in drinking water, site: liver, lesion: several types, types named in the paper, dosed 111 weeks, study length 111 weeks) 2.97 mg/kg/day; (rat, strain Fischer 344, males, in drinking water, site: liver, lesion: several types, types named in the paper, dosed 118 weeks, study length 128 weeks) 0.651 mg/kg/day. Moreover, the TD50 is 0.148 mg/kg/day (rat, strain Fischer 344, males, in drinking water, site: lung, lesion: adenocarcinoma, dosed 111 weeks, study length 111 weeks); 0.672 mg/kg/day (rat, strain Fischer 344, males, in drinking water, site: lung, lesion: adenocarcinoma, dosed 118 weeks, study length 128 weeks); 0.279 mg/kg/day (rat, strain Fischer 344, males, in drinking water, site: lung, lesion: adenoma, dosed 111 weeks, study length 111 weeks); 0.343 mg/kg/day (rat, strain Fischer 344, males, in drinking water, site: lung, lesion: adenoma, dosed 118 weeks, study length 128 weeks); 1.46 mg/kg/day (rat, strain Fischer 344, males, in drinking water, site: lung, lesion: adenosquamous carcinoma, dosed 118 weeks, study length 128 weeks); 0.0688 mg/kg/day (rat, strain Fischer 344, males, in drinking water, site: lung, lesion: several types, types named in the paper, dosed 111 weeks, study length 111 weeks). Also, the TD50 (rat, strain Fischer 344, males, in drinking water, site: lung, lesion: several types, types named in the paper, dosed 118 weeks, study length 128 weeks) is 0.182 mg/kg/day; the TD50 (rat, strain Fischer 344, males, in drinking water, site: lung, lesion: squamous-cell carcinoma, dosed 118 weeks, study length 128 weeks) is 3.4 mg/kg/day; the TD50 (rat, strain Fischer 344, males, in drinking water, site: nasal cavity, lesion: several types, types named in the paper, dosed 118 weeks, study length 128 weeks) came out at 1.66 mg/kg/day; the TD50 (rat, strain Fischer 344, males, in drinking water, site: pancreas, exocrine, lesion: acinar-cell adenoma, dosed 118 weeks, study length 128 weeks) came to 29.2 mg/kg/day; the TD50 (rat, strain Fischer 344, males, in drinking water, site: pancreas, exocrine, lesion: adenocarcinoma, acinar or ductal, dosed 118 weeks, study length 128 weeks) is 6.93 mg/kg/day; the TD50 (rat, strain Fischer 344, males, in drinking water, site: pancreas, exocrine, lesion: malignant tumor, dosed 111 weeks, study length 111 weeks) amounted to 0.975 mg/kg/day. Moreover, the TD50 (rat, strain Fischer 344, males, in drinking water, site: pancreas, exocrine, lesion: several types, types named in the paper, dosed 118 weeks, study length 128 weeks) is 0.49 mg/kg/day. For the same compound, the carcinogen call was “negative (inactive)” (hamster, strain Syrian Golden, females, in drinking water, site: lung, lesion: several types, types named in the paper, dosed 87 weeks, study length 87 weeks); “negative (inactive)” (hamster, strain Syrian Golden, females, in drinking water, site: pancreas, lesion: adenocarcinoma, dosed 87 weeks, study length 87 weeks); “negative (inactive)” (hamster, strain Syrian Golden, females, in drinking water, site: pancreatic islets, lesion: islet-cell adenoma, dosed 87 weeks, study length 87 weeks).
On to `CCCCC/C=N/N(C)C=O`, for which the TD50 (mouse, strain Swiss, females, by gavage, site: liver, lesion: hepatocellular carcinoma, dosed 52 weeks, study length 122 weeks) worked out at 180 mg/kg/day; the TD50 (mouse, strain Swiss, females, by gavage, site: liver, lesion: hepatoma, benign, dosed 52 weeks, study length 122 weeks) amounted to 23.3 mg/kg/day; the TD50 (mouse, strain Swiss, females, by gavage, site: liver, lesion: several types, types named in the paper, dosed 52 weeks, study length 122 weeks) is 19.9 mg/kg/day; the TD50 (mouse, strain Swiss, females, by gavage, site: lung, lesion: adenocarcinoma, dosed 52 weeks, study length 122 weeks) is 8.73 mg/kg/day; the TD50 (mouse, strain Swiss, females, by gavage, site: lung, lesion: adenoma, dosed 52 weeks, study length 122 weeks) stood at 4.68 mg/kg/day; the TD50 (mouse, strain Swiss, females, by gavage, site: lung, lesion: several types, types named in the paper, dosed 52 weeks, study length 122 weeks) is 2.96 mg/kg/day. The TD50 runs as follows: (mouse, strain Swiss, males, by gavage, site: liver, lesion: hepatocellular carcinoma, dosed 52 weeks, study length 128 weeks) 115 mg/kg/day; (mouse, strain Swiss, males, by gavage, site: liver, lesion: hepatoma, benign, dosed 52 weeks, study length 128 weeks) 45.4 mg/kg/day; (mouse, strain Swiss, males, by gavage, site: liver, lesion: several types, types named in the paper, dosed 52 weeks, study length 128 weeks) 31.4 mg/kg/day; (mouse, strain Swiss, males, by gavage, site: lung, lesion: adenocarcinoma, dosed 52 weeks, study length 128 weeks) 5.52 mg/kg/day; (mouse, strain Swiss, males, by gavage, site: lung, lesion: adenoma, dosed 52 weeks, study length 128 weeks) 6.63 mg/kg/day; (mouse, strain Swiss, males, by gavage, site: lung, lesion: several types, types named in the paper, dosed 52 weeks, study length 128 weeks) 1.92 mg/kg/day. Further, the TD50 (mouse, strain Swiss, males, by gavage, site: preputial gland, lesion: several types, types named in the paper, dosed 52 weeks, study length 128 weeks) was 6.51 mg/kg/day; the TD50 (mouse, strain Swiss, males, by gavage, site: preputial gland, lesion: squamous-cell carcinoma, dosed 52 weeks, study length 128 weeks) was found to be 8.03 mg/kg/day; the TD50 (mouse, strain Swiss, males, by gavage, site: preputial gland, lesion: squamous-cell papilloma, dosed 52 weeks, study length 128 weeks) is 93.3 mg/kg/day.
For `CC=CC(=O)Oc1c(C(C)CCCCCC)cc([N+](=O)[O-])cc1[N+](=O)[O-]` (stereo not given), the carcinogen call (mouse, strain B6AKF1, females, oral dosing, site: any site (literature study), lesion: several types, types named in the paper, dosed 76 weeks, study length 76 weeks) was “negative (inactive)”; the carcinogen call (mouse, strain B6AKF1, females, oral dosing, site: liver, lesion: hepatoma, dosed 76 weeks, study length 76 weeks) is “negative (inactive)”; the carcinogen call (mouse, strain B6AKF1, females, oral dosing, site: lung, lesion: adenoma, dosed 76 weeks, study length 76 weeks) is “negative (inactive)”; the carcinogen call (mouse, strain B6C3F1, females, oral dosing, site: lung, lesion: several types, types named in the paper, dosed 76 weeks, study length 76 weeks) was “negative (inactive)”; the carcinogen call (mouse, strain B6C3F1, males, oral dosing, site: lung, lesion: several types, types named in the paper, dosed 76 weeks, study length 76 weeks) is “negative (inactive)”. Besides, the TD50 is 11.9 mg/kg/day (inactive) (mouse, strain B6AKF1, males, oral dosing, site: any site (literature study), lesion: several types, types named in the paper, dosed 76 weeks, study length 76 weeks); 2.07 mg/kg/day (inactive) (mouse, strain B6AKF1, males, oral dosing, site: liver, lesion: hepatoma, dosed 76 weeks, study length 76 weeks); 19.1 mg/kg/day (inactive) (mouse, strain B6AKF1, males, oral dosing, site: lung, lesion: adenoma, dosed 76 weeks, study length 76 weeks); 1.21 mg/kg/day (inactive) (mouse, strain B6C3F1, females, oral dosing, site: any site (literature study), lesion: several types, types named in the paper, dosed 76 weeks, study length 76 weeks); 2.5 mg/kg/day (inactive) (mouse, strain B6C3F1, females, oral dosing, site: liver, lesion: hepatoma, dosed 76 weeks, study length 76 weeks); 0.405 mg/kg/day (inactive) (mouse, strain B6C3F1, males, oral dosing, site: any site (literature study), lesion: several types, types named in the paper, dosed 76 weeks, study length 76 weeks). In addition, the TD50 (mouse, strain B6C3F1, males, oral dosing, site: liver, lesion: hepatoma, dosed 76 weeks, study length 76 weeks) is 2.32 mg/kg/day (inactive).
In the case of `Cc1ccc(OP(=O)(Oc2ccc(C)cc2)Oc2ccc(C)cc2)cc1`, the carcinogen call (mouse, strain B6C3F1, females, in feed, site: any site (literature study), lesion: several types, types named in the paper, dosed 104 weeks, study length 105 weeks) is “negative (inactive)” and the carcinogen call (rat, strain Fischer 344, males, in feed, site: any site (literature study), lesion: several types, types named in the paper, dosed 104 weeks, study length 104 weeks) was “negative (inactive)”. For the same compound, the TD50 (mouse, strain B6C3F1, females, in feed, site: lung, lesion: alveolar/bronchiolar adenoma + alveolar/bronchiolar carcinoma, dosed 104 weeks, study length 105 weeks) was found to be 2310 mg/kg/day; the TD50 (mouse, strain B6C3F1, males, in feed, site: Harderian gland, lesion: adenoma, dosed 104 weeks, study length 105 weeks) is 184 mg/kg/day (inactive); the TD50 (mouse, strain B6C3F1, males, in feed, site: any site (literature study), lesion: several types, types named in the paper, dosed 104 weeks, study length 105 weeks) was determined as 159 mg/kg/day; the TD50 (mouse, strain B6C3F1, males, in feed, site: liver, lesion: hepatocellular adenoma + hepatoblastoma + hepatocellular carcinoma, dosed 104 weeks, study length 105 weeks) was 968 mg/kg/day; the TD50 (mouse, strain B6C3F1, males, in feed, site: lung, lesion: alveolar/bronchiolar adenoma + alveolar/bronchiolar carcinoma, dosed 104 weeks, study length 105 weeks) was found to be 187 mg/kg/day; the TD50 (rat, strain Fischer 344, females, in feed, site: all sites, lesion: mononuclear-cell leukemia, dosed 104 weeks, study length 104 weeks) was 35 mg/kg/day (inactive). Besides, the TD50 (rat, strain Fischer 344, females, in feed, site: any site (literature study), lesion: several types, types named in the paper, dosed 104 weeks, study length 104 weeks) is 21.6 mg/kg/day and the TD50 (rat, strain Fischer 344, males, in feed, site: liver, lesion: hepatocellular adenoma + hepatoblastoma + hepatocellular carcinoma, dosed 104 weeks, study length 104 weeks) is 143 mg/kg/day.
In the case of `NC(=O)N(CC(=O)O)N=O`, the TD50 runs as follows: (rat, strain Donryu, females, in drinking water, site: any site (literature study), lesion: several types, types named in the paper, dosed 68 weeks, study length 68 weeks) 1.38 mg/kg/day; (rat, strain Donryu, females, in drinking water, site: intestine, lesion: several types, types named in the paper, dosed 68 weeks, study length 68 weeks) 5.37 mg/kg/day; (rat, strain Donryu, females, in drinking water, site: mammary gland, lesion: fibroadenoma, dosed 68 weeks, study length 68 weeks) 2.92 mg/kg/day; (rat, strain Donryu, females, in drinking water, site: mammary gland, lesion: several types, types named in the paper, dosed 68 weeks, study length 68 weeks) 2.3 mg/kg/day; (rat, strain Donryu, females, in drinking water, site: small intestine, lesion: adenocarcinoma, dosed 68 weeks, study length 68 weeks) 11.6 mg/kg/day; (rat, strain Donryu, females, in drinking water, site: small intestine, lesion: adenoma, dosed 68 weeks, study length 68 weeks) 8.09 mg/kg/day. Further, the TD50 was 13.1 mg/kg/day (rat, strain MRC-Wistar, males, in drinking water, site: any site (literature study), lesion: several types, types named in the paper, dosed 74 weeks, study length 130 weeks) and 34.8 mg/kg/day (rat, strain MRC-Wistar, males, in drinking water, site: epidermis, lesion: several types, types named in the paper, dosed 74 weeks, study length 130 weeks).
